From publication PMC8788354 (Journal of Enzyme Inhibition and Medicinal Chemistry, 2022)
Where two headings read alike, the source gives them in different places.

What was measured:
[1] = tested on: SKOV-3 (ovarian cancer cell line); experiment: cells; format: cell-based, human; conditions: Homo sapiens, SK-OV-3; SRB assay, 72 h exposure; read-out: Anticancer activity IC50 (nM) ± SD, SKOV-3
[2] = tested on: Human Dermal Fibroblasts cell line (HDF); conditions: read-out: Toxicity IC50 (nM) ± SD, HDF; healthy cell line HDF, SRB assay, 72 h exposure
[3] = tested on: SKBR-3 (human breast cancer cell line); experiment: cells; format: cell-based; conditions: Homo sapiens, SK-BR-3, 72 h, SRB assay, 72 h exposure; read-out: Anticancer activity IC50 (nM) ± SD, SKBR-3
in vitro = conditions: human, Toxicity IC50 (nM) ± SD, HDF, healthy cell line HDF, SRB assay, 72 h exposure
[4] = tested on: PC-3 (human prostate cancer cell line); experiment: cells; format: cell-based; conditions: Homo sapiens; SRB assay, 72 h exposure; read-out: Anticancer activity IC50 (nM) ± SD, PC-3
[5] = tested on: U-87MG cells (glioblastoma cell line); experiment: cells; format: cell-based, human; conditions: for IC50: Homo sapiens, U-87 MG, SRB assay, 72 h exposure, read-out: Anticancer activity IC50 (nM) ± SD, U-87
[6] = tested on: SKBR-3, SKOV-3, PC-3, U-87 cells; experiment: SRB cytotoxicity assay, values summarised over cancer cell lines; format: cell-based, human
[7] = Homo sapiens, SKBR-3, SKOV-3, PC-3, U-87, read-out: Anticancer IC50 over the studied cancer cell lines

Row | SMILES | IC50 [1] [nM] | IC50 [2] [nM] | IC50 [3] [nM] | IC50 (in vitro) [nM] | IC50 [4] [nM] | IC50 [5] [nM] | IC50 [6, 7] [nM] | Selectivity indexes (SIs), all studied cancer cell lines ([6]; SI = IC50 HDF/IC50 cancer cell line) | IC50 ([6]; SKBR-3, SKOV-3, PC-3, U-87, read-out: Anticancer IC50 over the studied cancer cell lines) [nM] | Selectivity index (SI), U-87 ([5]; SI = IC50 HDF/IC50 U-87) | IC50 ([6]; Homo sapiens, average over cancer cell lines, read-out: Average anticancer IC50) [nM]
1 | COc1cc2c(c(OC)c1OC)-c1ccc(=O)c(OCc3ccc(/C=C/c4ccccn4)cc3)cc1[C@@H](NC(C)=O)CC2 [Compound 7b] | 2.69 ± 0.02 | 5.11 ± 0.85 | 2.09 ± 0.33 | 4 to 5 | 2.45 ± 0.52 | 2.43 ± 0.12 | 2 to 2.5 | – | – | – | –
2 | C/C=C/COc1cc2c(ccc1=O)-c1c(cc(OC)c(OC)c1OC)CC[C@@H]2NC(C)=O [Compound 3e] | 0.98 ± 0.02 | – | 0.94 ± 0.06 | 2.13 ± 0.06 | 0.96 ± 0.01 | 0.95 ± 0.01 | 0.94 to 0.98 | ~2.2 | ~0.9 | – | –
3 | COc1cc2c(c(OC)c1OC)-c1ccc(OCc3cn(Cc4ccc([N+](=O)[O-])cc4)nn3)c(=O)cc1[C@@H](NC(C)=O)CC2 [Compound 6c] | 2.42 ± 0.11 | – | 2.88 ± 0.06 | 4.08 ± 0.26 | 2.05 ± 0.03 | 2.81 ± 0.18 | – | – | – | – | –
4 | COc1cc2c(c(OC)c1OC)-c1ccc(=O)c(OCc3ccc(/C=C/c4ccc5ccccc5c4)cc3)cc1[C@@H](NC(C)=O)CC2 [Compound 7a] | 8.54 ± 0.71 | – | 8.02 ± 0.08 | 8.19 ± 0.92 | 8.61 ± 0.38 | 8.63 ± 0.14 | – | – | – | – | –
5 | COc1cc2c(c(OC)c1OC)-c1ccc(=O)c(OCCCN=[N+]=[N-])cc1[C@@H](NC(C)=O)CC2 [Compound 3i] | 1.05 ± 0.02 | – | 1.32 ± 0.05 | 2.85 ± 0.13 | 1.43 ± 0.02 | 1.88 ± 0.05 | – | – | – | – | –
6 | COc1cc2c(c(OC)c1OC)-c1ccc(OCCCN=[N+]=[N-])c(=O)cc1[C@@H](NC(C)=O)CC2 [Compound 4i] | 1.37 ± 0.09 | – | 1.38 ± 0.03 | 2.58 ± 0.12 | 1.49 ± 0.16 | 1.19 ± 0.03 | – | – | – | – | –
7 | COc1cc2c(c(OC)c1OC)-c1ccc(OCc3cn(C4CC(n5cc(C)c(=O)[nH]c5=O)OC4CO)nn3)c(=O)cc1C(NC(C)=O)CC2 (stereo not shown) [Compound 6e] | 3.33 ± 0.11 | – | 3.02 ± 0.31 | 5.18 ± 0.18 | 3.5 ± 0.49 | 3.84 ± 0.02 | – | – | – | – | –
8 | COc1cc2c(c(OC)c1OC)-c1ccc(=O)c(OCc3cn(Cc4ccc(C#N)cc4)nn3)cc1[C@@H](NC(C)=O)CC2 [Compound 5b] | 2.88 ± 0.47 | – | 2.07 ± 0.08 | 4.92 ± 0.51 | 2.13 ± 0.02 | 2.57 ± 0.13 | – | – | – | – | –
9 | C=CCCOc1cc2c(ccc1=O)-c1c(cc(OC)c(OC)c1OC)CC[C@@H]2NC(C)=O [Compound 3h] | 1.99 ± 0.07 | – | 1.04 ± 0.33 | 1.84 ± 0.11 | 1.53 ± 0.21 | 1.06 ± 0.03 | – | – | – | – | –
10 | COc1cc2c(c(OC)c1OC)-c1ccc(OCc3cn(Cc4ccccc4)nn3)c(=O)cc1[C@@H](NC(C)=O)CC2 [Compound 6a] | 2.79 ± 0.07 | – | 2.33 ± 0.09 | 3.88 ± 0.14 | 2.04 ± 0.44 | 2.78 ± 0.05 | – | – | – | – | –
11 | C=CCOc1cc2c(ccc1=O)-c1c(cc(OC)c(OC)c1OC)CC[C@@H]2NC(C)=O [Compound 3d] | 1.68 ± 0.09 | – | 1.09 ± 0.01 | 2.83 ± 0.05 | 1.05 ± 0.01 | 1.63 ± 0.04 | – | – | – | – | –
12 | C#CCOc1ccc2c(cc1=O)[C@@H](NC(C)=O)CCc1cc(OC)c(OC)c(OC)c1-2 [Compound 4f] | 1.52 ± 0.02 | – | 1.48 ± 0.09 | 1.85 ± 0.03 | 1.46 ± 0.13 | 1.06 ± 0.04 | – | – | – | – | –
13 | COc1cc2c(c(OC)c1OC)-c1ccc(=O)c(OCc3cn(CCCNC4=C5C[C@@H](C)C[C@H](OC)[C@H](O)[C@@H](C)/C=C(\C)[C@H](OC(N)=O)[C@@H](OC)/C=C\C=C(/C)C(=O)NC(=CC4=O)C5=O)nn3)cc1[C@@H](NC(C)=O)CC2 [Compound 5f] | 8.05 ± 0.58 | – | 8.91 ± 0.17 | 10.4 ± 0.39 | 8.38 ± 0.09 | 8.25 ± 0.11 | – | – | – | – | –
14 | COc1cc2c(c(OC)c1OC)-c1ccc(OCc3cn([C@@H]4O[C@H](COC(C)=O)[C@@H](OC(C)=O)[C@H](OC(C)=O)[C@H]4NC(C)=O)nn3)c(=O)cc1[C@@H](NC(C)=O)CC2 [Compound 6d] | 5.93 ± 0.12 | – | 5.21 ± 0.39 | 7.29 ± 0.41 | 5.04 ± 0.02 | 5.83 ± 0.15 | – | – | – | – | –
15 | C=CCCOc1ccc2c(cc1=O)[C@@H](NC(C)=O)CCc1cc(OC)c(OC)c(OC)c1-2 [Compound 4h] | 1.27 ± 0.16 | – | 1.69 ± 0.05 | 2.71 ± 0.08 | 1.22 ± 0.03 | 1.07 ± 0.12 | – | – | – | ~2.5 | ~1.5
